In ChEMBL document CHEMBL6121041, “Design and synthesis of isatin derivative payloaded peptide-drug conjugate as tubulin inhibitor against colorectal cancer” (Eur J Med Chem, 2025):
Active and inactive are the calls of the source. No cut-off for these calls is given here. Residues, ends and D or L forms follow the SMILES beside them.

Assays:
HCT-116 [1] = assay: Antiproliferative activity against human HCT-116 cells assessed as reduction in cell viability incubated for 48 hrs by MTT assay; assay type: functional, cell-based; settings: HCT-116, 48 h
[2] = Cytotoxicity against HUVEC cells assessed as reduction in cell viability incubated for 48 hrs by MTT assay; assay type: toxicity, cell-based; settings: human
[3] = Cytotoxicity against HK-2 cells assessed as reduction in cell viability incubated for 48 hrs by MTT assay; assay type: toxicity, cell-based; settings: human
K562 = assay: Antiproliferative activity against human K562 cells assessed as reduction in cell viability incubated for 48 hrs by MTT assay; assay type: functional, cell-based; settings: K562, 48 h
HepG2 = assay: Antiproliferative activity against human HepG2 cells assessed as reduction in cell viability incubated for 48 hrs by MTT assay; assay type: functional, cell-based; settings: HepG2, 48 h
MGC-803 = assay: Antiproliferative activity against human MGC-803 cells assessed as reduction in cell viability incubated for 48 hrs by MTT assay; assay type: functional, cell-based; settings: MGC-803, 48 h
786-0 = assay: Antiproliferative activity against human 786-0 cells assessed as reduction in cell viability incubated for 48 hrs by MTT assay; assay type: functional, cell-based; settings: 786-0, 48 h
HCC827 = assay: Antiproliferative activity against human HCC827 cells assessed as reduction in cell viability incubated for 48 hrs by MTT assay; assay type: functional, cell-based; settings: HCC827, 48 h
HCT-116 [4] = assay: Cell cycle arrest in human HCT-116 cells assessed as accumulation of cells at G2/M phase by measuring decrease in CDK1 expression at 0.2 to 0.8 uM incubated for 24 hrs by Western blot analysis; assay type: functional, cell-based; settings: dose 0.2-0.8 µM
HCT-116 [5] = assay: Induction of apoptosis in human HCT-116 cells assessed as morphological changes at 0.4 to 0.8 microM measured after 24 hrs by microscopic analysis; assay type: functional, cell-based; settings: dose 0.4-0.8 µM
HCT-116 [6] = assay: Induction of apoptosis in human HCT-116 cells assessed as increase in caspase-3 activation level at 0.8 uM measured after 24 hrs by Western blot analysis; assay type: functional, cell-based
HCT-116 [7] = assay: Inhibition of beta-tubulin expression in human HCT-116 cells at 0.8 uM incubated for 24 hrs by Western blot analysis; assay type: functional, cell-based
HCT-116 [8] = assay: Induction of apoptosis in human HCT-116 cells assessed as cell fragmentation at 0.4 to 0.8 microM measured after 24 hrs by microscopic analysis; assay type: functional, cell-based; settings: dose 0.4-0.8 µM
[9] = Toxicity in SPF-grade Balb/c nude mouse xenografted with human HCT-116 cells assessed as average body weight at 12 mg/kg, ip measured after 10 days; assay type: organism-based; settings: in vivo, 240 h, time 10 day
HCT-116 [10] = assay: Induction of apoptosis in human HCT-116 cells assessed as downregulation of Bcl-2 protein at 0.8 uM measured after 24 hrs by Western blot analysis; assay type: functional, cell-based
HCT-116 [11] = assay: Cell cycle arrest in human HCT-116 cells assessed as increase in p53 expression at 0.2 to 0.8 uM incubated for 24 hrs by Western blot analysis; assay type: functional, cell-based; settings: dose 0.2-0.8 µM
HCT-116 [12] = assay: Cell cycle arrest in human HCT-116 cells assessed as accumulation of cells at G2/M phase by measuring increase in cyclin B1 expression at 0.2 to 0.8 uM incubated for 24 hrs by Western blot analysis; assay type: functional, cell-based; settings: dose 0.2-0.8 µM
HCT-116 [13] = assay: Inhibition of beta-tubulin expression in human HCT-116 cells at 0.2 to 0.8 uM incubated for 24 hrs by Western blot analysis; assay type: functional, cell-based; settings: dose 0.2-0.8 µM
HCT-116 [14] = assay: Inhibition of colony formation in human HCT-116 cells at 0.4 to 0.8 uM measured after 10 days by crystal violet staining based inverted microscopic analysis; assay type: functional, cell-based; settings: dose 0.4-0.8 µM, time 10.0 day
HCT-116 [15] = assay: Antitumor activity against human HCT-116 cells xenografted in SPF-grade Balb/c nude mouse model assessed as reduction in tumor size at 12 mg/kg, ip administered daily for 11 days by photographic analysis; assay type: functional, organism-based; settings: time 11.0 day
HCT-116 [16] = assay: Cell cycle arrest in human HCT-116 cells assessed as decrease in CDK1 expression at 0.8 uM incubated for 24 hrs by Western blot analysis; assay type: functional, cell-based
HCT-116 [17] = assay: Induction of apoptosis in human HCT-116 cells assessed as morphological changes at 0.4 to 0.8 microM measured after 48 hrs by microscopic analysis; assay type: functional, cell-based; settings: dose 0.4-0.8 µM
HCT-116 [18] = assay: Antitumor activity against human HCT-116 cells xenografted in SPF-grade Balb/c nude mouse model assessed as tumor growth inhibition at 12 mg/kg, ip administered daily for 11 days relative to control; assay type: functional; settings: HCT-116, 264 h, time 11 day, read-out: TGI
HCT-116 [19] = assay: Antitumor activity against human HCT-116 cells xenografted in SPF-grade Balb/c nude mouse model assessed as inhibition of tumor cell growth at 12 mg/kg, ip administered daily for 11 days by H and E staining based analysis; assay type: functional, organism-based; settings: time 11.0 day
HCT-116 [20] = assay: Induction of apoptosis in human HCT-116 cells assessed as increase in PARP activation level at 0.8 uM measured after 24 hrs by Western blot analysis; assay type: functional, cell-based
HCT-116 [21] = assay: Cell cycle arrest in human HCT-116 cells assessed as increase in cyclin B1 expression at 0.8 uM incubated for 24 hrs by Western blot analysis; assay type: functional, cell-based
HCT-116 [22] = assay: Induction of apoptosis in human HCT-116 cells assessed as increase in caspase-3 cleavage level at 0.2 to 0.8 uM incubated for 24 hrs by Western blot analysis; assay type: functional, cell-based; settings: dose 0.2-0.8 µM
HCT-116 [23] = assay: Cell cycle arrest in human HCT-116 cells assessed as increase in p21 expression at 0.8 uM incubated for 24 hrs by Western blot analysis; assay type: functional, cell-based
HCT-116 [24] = assay: Antitumor activity against human HCT-116 cells xenografted in SPF-grade Balb/c nude mouse model assessed as tumor growth inhibition at 45.17 mg/kg, ip administered daily for 11 days relative to control; assay type: functional; settings: HCT-116, 264 h, time 11 day, read-out: TGI
HCT-116 [25] = assay: Induction of apoptosis in human HCT-116 cells assessed as downregulation of Bcl-2 protein at 0.2 to 0.8 uM measured within 24 hrs by Western blot analysis; assay type: functional, cell-based; settings: dose 0.2-0.8 µM
HCT-116 [26] = assay: Cell cycle arrest in human HCT-116 cells assessed as increase in p53 expression at 0.8 uM incubated for 24 hrs by Western blot analysis; assay type: functional, cell-based
HCT-116 [27] = assay: Induction of apoptosis in human HCT-116 cells assessed as upregulation of Bax protein at 0.8 uM measured after 24 hrs by Western blot analysis; assay type: functional, cell-based
HCT-116 [28] = assay: Induction of apoptosis in human HCT-116 cells assessed as increase in PARP cleavage at 0.2 to 0.8 uM incubated for 24 hrs by Western blot analysis; assay type: functional, cell-based; settings: dose 0.2-0.8 µM
HCT-116 [29] = assay: Cell cycle arrest in human HCT-116 cells assessed as accumulation of cells at G2/M phase at 0.4 to 0.8 uM incubated for 24 hrs by PI staining based flow cytometric analysis; assay type: functional; settings: dose 0.4-0.8 µM
HCT-116 [30] = assay: Inhibition of wound closure in human HCT-116 cells at 0.4 uM measured after 48 hrs by wound healing assay; assay type: functional, cell-based
HCT-116 [31] = assay: Induction of apoptosis in human HCT-116 cells assessed as upregulation of Bax protein at 0.2 to 0.8 uM measured within 24 hrs by Western blot analysis; assay type: functional, cell-based; settings: dose 0.2-0.8 µM
HCT-116 [32] = assay: Induction of apoptosis in human HCT-116 cells at 0.4 to 0.8 uM incubated for 24 hrs by Annexin V-FITC/PI staining based flow cytometric analysis; assay type: functional, cell-based; settings: dose 0.4-0.8 µM
HCT-116 [33] = assay: Cell cycle arrest in human HCT-116 cells assessed as increase in p21 expression at 0.2 to 0.8 uM incubated for 24 hrs by Western blot analysis; assay type: functional, cell-based; settings: dose 0.2-0.8 µM

With CC(=O)N[C@@H](CCCCN)C(=O)N1CCC[C@H]1C(=O)N[C@@H](CO)C(=O)N[C@@H](CO)C(=O)N1CCC[C@H]1C(=O)N1CCC[C@H]1C(=O)N[C@@H](CCC(=O)O)C(=O)N[C@@H](CCC(=O)O)C(N)=O (Ac-KPSSPPEE-NH2) the IC50 (HCT-116 [1]) was over 100 µM and the IC50 at 48 h [2] was over 100 µM.
In the case of CCN(CC)CCNC(=O)c1c(C)[nH]c(/C=C2\C(=O)Nc3ccc(F)cc32)c1C [SUNITINIB], the IC50 at 48 h [3] is reported as 6.88 µM, the IC50 (K562) is reported as 1.25 µM and the IC50 (HepG2) is reported as 4.7 µM. For the same compound, the IC50 (MGC-803) was 8.25 µM, the IC50 (786-0) was 9.02 µM and the IC50 (HCT-116 [1]) was 2.23 µM. It also gave an IC50 at 48 h [2] of 7.7 µM and an IC50 (HCC827) of 1.34 µM.
For COc1ccc(CN2C(=O)C(=O)c3cc(-c4ccc(OC)cc4)ccc32)cc1, the IC50 at 48 h [3] was 10.5 µM, the IC50 (K562) was 0.31 µM and the IC50 (HepG2) was 43 µM. For the same compound, the IC50 (MGC-803) was 19 µM, the IC50 (786-0) was 51.4 µM and the IC50 (HCT-116 [1]) was 0.768 µM. For the same compound, the IC50 at 48 h [2] was 27.2 µM and the IC50 (HCC827) was 10.1 µM.
Compound COc1ccc(CN2C(=O)C(=O)c3cc(-c4ccc(OC)cc4)cc(N)c32)cc1 has an IC50 at 48 h [3] of over 100 µM, an IC50 (K562) of 89.4 µM and an IC50 (HepG2) of over 100 µM. For the same compound, the IC50 (MGC-803) was over 100 µM, the IC50 (786-0) was over 100 µM and the IC50 (HCT-116 [1]) was over 100 µM. The IC50 at 48 h [2] was over 100 µM and the IC50 (HCC827) was 13.7 µM.
With COc1ccc(CN2C(=O)C(=O)c3cc(-c4ccc(O)cc4)ccc32)cc1 the Activity (HCT-116 [4]) was “Active”, the IC50 at 48 h [3] was 13.9 µM and the Activity (HCT-116 [5]) was “Active”. The IC50 (K562) was 0.8 µM, the Activity (HCT-116 [6]) was “Active” and the inhibition (HCT-116 [7]) was “Active”. The IC50 (HepG2) was over 100 µM, the Activity (HCT-116 [8]) was “Active” and the IC50 (MGC-803) was 20.6 µM. For the same compound, the Activity [9] was ~ 10 g, the Activity (HCT-116 [10]) was “Active” and the Activity (HCT-116 [11]) was “Active; Activation Of P53-Medisted Signaling Observed”. For the same compound, the Activity (HCT-116 [12]) was “Active”, the inhibition (HCT-116 [13]) was “Active” and the inhibition (HCT-116 [14]) was “Active”. The Activity (HCT-116 [15]) was “Active”, the IC50 (786-0) was 26.6 µM and the Activity (HCT-116 [16]) was “Active”. For the same compound, the Activity (HCT-116 [17]) was “Active; More Evident Apoptotic State Observed”, the inhibition in vivo at 12 mg/kg (HCT-116 [18]) was 49% and the Activity (HCT-116 [19]) was “Active”. For the same compound, the Activity (HCT-116 [20]) was “Active”, the Activity (HCT-116 [21]) was “Active” and the Activity (HCT-116 [22]) was “Active”. For the same compound, the Activity (HCT-116 [23]) was “Active”, the inhibition in vivo at 45.17 mg/kg (HCT-116 [24]) was 61% and the Activity (HCT-116 [25]) was “Active; Activation Of Intrinsic Apoptotic Pathway Observed”. For the same compound, the Activity (HCT-116 [26]) was “Active”, the Activity (HCT-116 [27]) was “Active” and the Activity (HCT-116 [28]) was “Active”. The Activity (HCT-116 [29]) was “Active”, the inhibition (HCT-116 [30]) was “Active” and the IC50 (HCT-116 [1]) was 0.33 µM. For the same compound, the Activity (HCT-116 [31]) was “Active; Activation Of Intrinsic Apoptotic Pathway Observed”, the IC50 at 48 h [2] was 18.1 µM and the Activity (HCT-116 [32]) was “Active”. For the same compound, the IC50 (HCC827) was 10.1 µM and the Activity (HCT-116 [33]) was “Active; Activation Of P53-Medisted Signaling Observed”.
Work on COc1ccc(CN2C(=O)C(=O)c3cc(-c4ccc(CBr)cc4)ccc32)cc1 yielded an IC50 at 48 h [3] of 1.99 µM, an IC50 (K562) of 0.77 µM and an IC50 (HepG2) of over 100 µM. The IC50 (MGC-803) was 27 µM, the IC50 (786-0) was 33.3 µM and the IC50 (HCT-116 [1]) was 0.349 µM. The IC50 at 48 h [2] was 16 µM and the IC50 (HCC827) was 24.2 µM.
